For data set [1], the system named is neurokinin A induced bronchoconstriction. The experiment in a line: Neurokinin A induced bronchoconstriction, intratrachea administration. Type of data set: in vivo, guinea-pigs. Conditions: for Inhibition (%) of neurokinin A response / ED50 mg/kg, inhibition of neurokinin A response: NKA 1 n mol/kg iv; for Effect of intratrachea administration on neurokinin A induced bronchoconstriction (in words): dissolved in DMSO; for Effect of intratrachea administration on neurokinin A induced bronchoconstriction (in words) / ED50 mg/kg, inhibition of neurokinin A response: intratrachea. The procedure:
(§1) Male Hartley strain guinea-pigs weighing 300-500 g were immobilized with sodium pentobarbital (10 mg/animal administered intraperitoneally). The jugular vein was cannulated for administration of neurokinin A (or capsaicin) and drug. A catheter was also intubated into trachea for artifical ventilation. The animal was respirated by means of a miniature respiration pump (HARVARD B-34, 5 ml/stroke, 60 strokes/minute). Resistance to lung inflation was measured by a modification of Konzett-Rossler overflow technique.
The method was almost same as mentioned above.

The test system is the same in data set [2]. The data set can be described thus: Neurokinin A induced bronchoconstriction, drug iv. The class given is in vivo, guinea-pigs. Conditions: 10 mg/kg, n:5. The procedure: as §1
(§2) Agonist was administered iv and the antagonist drug (prepared in 0.1% methyl cellulose-saline) was administered iv as shown below. [drawing 7]

For data set [3], the system named is acetic acid induced writhing. The experiment in a line: Analgesic action, acetic acid induced writhing. Type of data set: in vivo. Conditions: male ddY mice; intraperitoneally 15 minutes before acetic acid. The protocol:
Ten male ddY strain mice were used par group. To estimate the frequency of writhing syndrome, the animals were observed from 3 to 13 minutes after an intraperitoneal injection of 0.2 ml/10 g of 0.6% acetic acid. […] The frequency of writhing syndrome in the treated animals was compared with that in the non-treated control animals.
Background: An intraperitoneal irritant provokes the stretching counted in writhing tests.

Data set [4] relates to contractile responses of guinea pig trachea induced by substance P (SP). The experiment in a line: Contractile response of guinea pig trachea induced by substance P. Conditions: for IC50: read-out: IC50 (M), SP 10^-8 M induced contraction.
Experimental: (§3) Tracheal spiral strips were prepared from adult, male, albino Hartley strain guinea pigs (600 g) according to standard technique and placed in jacketed 30 ml glass tissue bath. […] Tracheal strips (2 mm width and 50 mm length) were suspended under a resting tension of 500 mg in 30 ml organ baths containing warm (37° C.) oxygenated (95% O2 : 5% CO2) Tyrode solution of following composition: NaCl 137 mM (8 g/liter), KCl 2.7 mM (0.2 g/liter), CaCl2 ·2H2 O 1.8 mM (0.264 g/liter), MgCl2 ·6H2 O 1.02mM (0.208 g/liter), NaHCO3 11.9 mM (1 g/liter), NaH2 PO4 ·2H2 O 0.42 mM (0.066 g/liter) and glucose 5.5 mM (1 g/liter).
Data set [5] is described as follows: Solubility (physical and chemical properties). Type of data set: physicochemical.
In data set [6] the test system is capsaicin induced bronchoconstriction. The data set can be described thus: Capsaicin induced bronchoconstriction, drug iv. Conditions: 10 mg/kg, n:4. The class given is in vivo, guinea-pigs. The protocol: as §1, §2
In data set [7] the test system is contractile responses of guinea pig trachea induced by neurokinin A (NKA). The experiment in a line: Contractile response of guinea pig trachea induced by neurokinin A.
Experimental: as §3
The nature of data set [8]: Acute toxicity, single intraperitoneal injection. Conditions: mouse, in vivo, ip, ddY mice, male. The procedure:
Acute toxicity of WS-9326A was determined in ddY mice (5 weeks old, male) by a single intraperitoneal injection of graded dose of test compound into 5 mice.

The target in data set [9] is T1, specific [^3 H] substance P binding to guinea pig lung membranes (Cavia porcellus, UniProt P30547).
T1 construct: The trachea and lungs were removed, and stored at -80° C. until use; from tissue; host or cells: guinea pig trachea and lung crude membrane fraction
T1 sequence (P30547 whole entry): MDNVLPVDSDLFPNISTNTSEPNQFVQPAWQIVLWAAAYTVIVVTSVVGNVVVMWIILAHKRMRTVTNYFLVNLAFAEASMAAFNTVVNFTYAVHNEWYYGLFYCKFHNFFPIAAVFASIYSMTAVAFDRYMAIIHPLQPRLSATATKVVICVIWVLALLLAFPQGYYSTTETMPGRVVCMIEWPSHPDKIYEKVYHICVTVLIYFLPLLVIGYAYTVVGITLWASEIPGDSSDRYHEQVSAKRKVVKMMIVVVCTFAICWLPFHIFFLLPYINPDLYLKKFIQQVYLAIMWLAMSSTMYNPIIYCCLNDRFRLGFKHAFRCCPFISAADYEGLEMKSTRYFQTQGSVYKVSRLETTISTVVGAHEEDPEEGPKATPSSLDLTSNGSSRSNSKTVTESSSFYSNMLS
The experiment in a line: ^3H-Substance P binding to guinea pig lung membranes (radioligand binding assay). Conditions: 3H-Substance P 1 nM, 4° C., 30 minutes, read-out: IC50 (M) lung, displacement of specific [3H] substance P binding.
Experimental: Male albino Hartley strain guinea pigs (600 g) were sacrificed by decapitation. The trachea and lungs were removed, and stored at -80° C. until use. […] The tissue was homogenized with a Ultra-Disperser (YAMATO, MODEL LK-21) at a setting of maximum range for 10-s at 10-s intervals with cooling between homogenizations (total homogenization's time: 60 seconds). The homogenate was centrifuged (900×g for 10 min.) to remove tissue supernatant centrifuged at 14000×g for 20 min. to yield pellets which were referred to as crude membrane fractions. The pellets were resuspended in Medium I, homogenized with a teflon homogenizer and centrifuged at 14000×g for 20 min. The pellets were stored at -20° C.
^3 H-Substance P (1 nM, New England Nuclear) was incubated with 50 μl of the membrane preparation in medium I at 4° C. for 30 minutes in a final volume of 250 μl. At the end of the incubation period, its contents were quickly filtered over a whatmann GF/B glass fibre filter (pretreated with 0.1% polyethyleneimine for 3 hours prior to use) using cell harvester (BRANDEL M-24S). The filters were then washed ten times with a total of 3 ml of the washing buffer (50 mM Tris-HCl pH 7.5) at 0° C. The radioactivity was counted in 3 ml of Aquazol-2 in Packard sintillation counter (PACKARD TRI-CARB 4530).

[10] abbreviates: intratrachea 0.03 mg/kg in DMSO, 20 minutes.
Setting [11] is: intratrachea 0.03 mg/kg in DMSO, 35 minutes.
The mark [12] stands for this setting: intratrachea 0.03 mg/kg in DMSO, 50 minutes.
Where [13] appears, read: intratrachea 0.03 mg/kg in DMSO, 65 minutes.
The mark [14] stands for this setting: intratrachea 0.3 mg/kg in DMSO, 20 minutes.
Setting [15] is: intratrachea 0.3 mg/kg in DMSO, 35 minutes.
Setting [16] is: intratrachea 0.3 mg/kg in DMSO, 50 minutes.
The mark [17] stands for this setting: intratrachea 0.3 mg/kg in DMSO, 65 minutes.

Numbered stars: 1 amine (or outer) side, 2 acyl side, 3 side chain; on linkers, the order of the positions; unused ones are H or OH. Bridge positions count the residues as written; N and C are the ends. Square brackets hold non-standard residues; d marks the D form. Peptide text beside a SMILES is read from it. * marks the point of attachment. Cinnamoyl(2-(1Z-pentenyl)) = CCC/C=C\c1ccccc1/C=C/C(=O)*; X1 = CN(/C(=C/c1ccc(O)cc1)C(=O)[*:2])[*:1]; NMeY = CN[C@@H](Cc1ccc(O)cc1)C(=O)O; aThr = C[C@H](O)[C@H](N)C(=O)O; X2 = CCCCCc1ccccc1CCC(=O)*

Broadly, the IC50 is the point on the concentration scale where inhibition reaches its midpoint. With `CCCCCc1ccccc1CCC(=O)N[C@@H]1C(=O)N(C)/C(=C/c2ccc(O)cc2)C(=O)N[C@@H](CC(C)C)C(=O)N[C@H](Cc2ccccc2)C(=O)N[C@@H]([C@H](C)O)C(=O)N[C@@H](CC(N)=O)C(=O)N[C@@H](CO)C(=O)O[C@@H]1C` [Tetrahydro-WS-9326A, tetrahydro-WS-9326A] (X2-T[X1]L[dF][aThr]NS; ester 1-C; N-terminus assumed), the “Inhibition (%) of neurokinin A response” value in data set [1] (intratrachea 0.003 mg/kg in DMSO, 20 minutes) turned out to be 5.4%; in data set [1] (intratrachea 0.003 mg/kg in DMSO, 35 minutes), 23.5%; in data set [1] (intratrachea 0.003 mg/kg in DMSO, 50 minutes) it was 17.2%; in data set [1] (intratrachea 0.003 mg/kg in DMSO, 65 minutes) it was 12.6%; in data set [1] (setting [10]), 50.0%; in data set [1] (setting [11]), 50.9%. Also, the “Inhibition (%) of neurokinin A response” value in data set [1] (setting [12]) was found to be 51.4%; in [1] (setting [13]), 43.0%; in [1] (setting [14]) it was 77.7%; in data set [1] (setting [15]) it was 75.7%; in data set [1] (setting [16]), 74.6%; in data set [1] (setting [17]), 71.1%. Also, in [1], the “Effect of intratrachea administration on neurokinin A induced bronchoconstriction (in words)” value is given as “highly potent”. In addition, the “Inhibition (%) of neurokinin A (1 n mol/kg, iv) response” value in data set [2] (2 minutes) is given as 41.0 ± 5.6%; in data set [2] (17 minutes), 100.0 ± 0.0%; in [2] (32 minutes) it was 99.2 ± 0.8%; in data set [2] (47 minutes), 98.4 ± 1.6%; in data set [2] (62 minutes) it was 100.0 ± 0.0%. The “ED50, acetic acid induced writhing” value in data set [3] is 5.5 mg/kg. In addition, the IC50 in [4] amounted to 3.1e-06 M.
As usually defined, the LD50 is the dose at which mortality reaches 50%. A low value points to greater toxicity. Turning to `CCC/C=C\c1ccccc1/C=C/C(=O)N[C@@H]1C(=O)N(C)/C(=C/c2ccc(O)cc2)C(=O)N[C@@H](CC(C)C)C(=O)N[C@H](Cc2ccccc2)C(=O)N[C@@H]([C@H](C)O)C(=O)N[C@@H](CC(N)=O)C(=O)N[C@@H](CO)C(=O)O[C@@H]1C` [WS-9326A] ({Cinnamoyl(2-(1Z-pentenyl))}-T[X1]L[dF][aThr]NS; ester 1-C; N-terminus assumed), the “Inhibition (%) of neurokinin A response” value in [1] (setting [10]) stood at 32.3%; in [1] (setting [11]) it was 28.4%; in data set [1] (setting [12]), 35.6%; in data set [1] (setting [13]), 35.5%; in data set [1] (setting [14]), 50.6%; in data set [1] (setting [15]), 42.4%. Moreover, the “Inhibition (%) of neurokinin A response” value in [1] (setting [16]) worked out at 44.9%; in [1] (setting [17]), 42.0%; in [1] (intratrachea 3 mg/kg in DMSO, 20 minutes), 73.4%; in data set [1] (intratrachea 3 mg/kg in DMSO, 35 minutes) it was 79.4%; in data set [1] (intratrachea 3 mg/kg in DMSO, 50 minutes), 81.7%; in data set [1] (intratrachea 3 mg/kg in DMSO, 65 minutes) it was 77.7%. Also, the “Effect of intratrachea administration on neurokinin A induced bronchoconstriction (in words)” value in data set [1] is reported as “highly potent”. In addition, the “ED50 mg/kg, inhibition of neurokinin A response” value in data set [1] (20 minutes) is given as 0.23 mg/kg; in [1] (35 minutes), 0.29 mg/kg; in data set [1] (50 minutes), 0.19 mg/kg; in [1] (65 minutes), 0.24 mg/kg. The Solubility result in data set [5] (acetone) was “Sparingly Soluble”; in data set [5] (chloroform), “Insoluble”; in [5] (ethanol), “Soluble”; in [5] (ethyl acetate), “Sparingly Soluble”; in data set [5] (methanol) it was “Soluble”; in data set [5] (water), “Insoluble”. Further, the “Inhibition (%) of capsaicin (10 n mol/kg, iv) response” value in data set [6] (2 minutes) came out at 16.6 ± 5.1%; in [6] (17 minutes), 40.6 ± 12.2%; in data set [6] (32 minutes), 51.2 ± 10.4%; in data set [6] (47 minutes) it was 37.2 ± 19.7%; in data set [6] (62 minutes), 47.1 ± 16.7%. Besides, the “Inhibition (%) of neurokinin A (1 n mol/kg, iv) response” value was -16.5 ± 5.6% in [2] (2 minutes); 30.2 ± 12.9% in data set [2] (17 minutes); 45.8 ± 13.8% in [2] (32 minutes); 55.4 ± 8.1% in [2] (47 minutes); 49.9 ± 13.4% in [2] (62 minutes). The results for the “Inhibition % NKA 10^-9 M” value in [7] (3 μg/ml), in [7] (10 μg/ml) and in data set [7] (30 μg/ml) were 44%, 79% and 100%, respectively. Besides, the IC50 in data set [7] (read-out: IC50 (M), NKA 10^-9 M induced contraction) was determined as 3.5e-06 M; in [4], 9.7e-06 M. Further, the “Inhibition % SP 10^-8 M” value in data set [4] (3 μg/ml) is -10%; in [4] (10 μg/ml) it was 50%; in data set [4] (30 μg/ml) it was 63%. For the same molecule, the LD50 in data set [8] was 250 to 500 mg/kg.
For `CCC/C=C\c1ccccc1/C=C/C(=O)N[C@@H]1C(=O)N(C)[C@@H](Cc2ccc(O)cc2)C(=O)N[C@@H](CC(C)C)C(=O)N[C@H](Cc2ccccc2)C(=O)N[C@@H]([C@H](C)O)C(=O)N[C@@H](CC(N)=O)C(=O)N[C@@H](CO)C(=O)O[C@@H]1C` [WS-9326B] ({Cinnamoyl(2-(1Z-pentenyl))}-T[NMeY]L[dF][aThr]NS; ester 1-C), in data set [9], the half-inhibitory concentration (IC50) is 8.8e-05 M. In addition, the Solubility entry in [5] (acetone) is “Insoluble”; in [5] (chloroform), “Insoluble”; in data set [5] (ethanol), “Sparingly Soluble”; in data set [5] (ethyl acetate), “Insoluble”; in data set [5] (methanol), “Soluble”; in data set [5] (water) it was “Insoluble”.

For the origin of these results see US5217952A, “Peptides WS-9326a and WS-9326b, derivatives thereof and uses thereof” (Fujisawa Pharmaceutical Co., Ltd., priority 1988, dated 1993).
